Laboratory results published in patent US12109301B2, “Formulations, methods, and systems for treating genitourinary conditions” (Massachusetts Institute of Technology, priority 2017, dated 2024).
Read-outs that look alike come from different tables or passages of the source.

Legend:
[1] = system: human ureteral smooth muscle cell (hUSMC); test: High throughput screening (HTS) of hUSMC relaxation (p-MLC vs unphosphorylated MLC, single-cell analysis); assay type: cell-based; conditions: for relaxation of smooth muscle cells within a cell population: 8 hour exposure; for relaxation of smooth muscle (in words): hUSMC, prolonged exposure (8 hours)
Text: An HTS test was developed to quantify the contractile state of a human ureteral smooth muscle cell (hUSMC). Quantification of hUSMC relaxation was achieved by performing single-cell analysis using a computer vision (CellProfiler, Broad Institute, MA) approach that related each cell's fluorescence intensity to its state of muscle relaxation (comparing phosphorylated myosin with unphosphorylated myosin).
Primary hUMSCs were harvested from patients and cultured. There were about 10,000 cells per well, and 100 μL of media per well. Each well represented one experiment, and 250 nL of drug per well was delivered with DMSO (0.25% DMSO by volume).
In the test of this example, single cell analysis was performed on each cell (identified via computer vision) after exposure to various drugs which enable relaxation in order to correlate each cell's contractile state to the therapeutic compound, exposure time, and dose.
These correlations were determined by analyzing the fluorescent intensity of smooth muscle cells, which is related to the contractile state of the muscles. When a smooth muscle cell is signaled to contract, phosphorylation of myosin light-chain (p-MLC) occurs, which is a biomarker of muscle contraction. Conversely, when smooth muscle is left unphosphorylated (MLC), muscle relaxation occurs. Therefore, smooth muscle contraction can be computed from the proportion of p-MLC to unphosphorylated-MLC.
The tested agents included those in the following table.

[2] = system: human ureteral smooth muscle cell (hUSMC); test: Cell viability of hUSMC in the HTS of Example 1
Procedure: Eight-point dosing curves were performed starting at 25 μM. […] The results were collected from three separate screening runs across three unique primary hUSMC lines (derived from three separate patients).
These relaxation percentages were derived after an 8 hour exposure.

whole porcine ureters = test: Bench top ex vivo model, phenylephrine-stimulated contractions, intraluminal delivery; set-up: species or system pig
Procedure: An ex vivo bench top model was designed to permit the testing of whole ureteral segments. Flow through the ureteral segments was regulated, and ranged from 0.25 mL/minute to 60 mL/minute. […] The intraluminal reservoirs contained either preheated saline buffer or dilutions of any candidate therapeutic agent.
The pounds per square inch (PSI) pressure readings were obtained using a fiber-optic pressure catheter.
For this test, a ureter was prepared through intraluminal delivery of saline (Krebs-Henseleit Buffer) (BUF) only (region “i”). The experiment then was initiated and phenylephrine [10 mM] was added to the Krebs infusion to stimulate baseline peristaltic contractions seen in patients with urinary stones (region “ii”). […] [1 μM]
Cumulative ureteral contractions were plotted over the course of the entire experiment, and are depicted at FIG. 8. For this test, a ureter was prepared through intraluminal delivery of saline (BUF) only (region “i”). The experiment was initiated and phenylephrine [10 mM] was added to the Krebs infusion to stimulate baseline peristaltic contractions seen in patients with urinary stones (region “ii”).

hUSMCs [3] = conditions: for Percentages of Cells that Remained Contracted After Treatment: Nifedipine 0 μM
hUSMCs [4] = assay type: cell-based; conditions: human
[5] = Procedure: A commercially available surgical lubricant (SURGILUBE® lubricant) was combined with a surfactant. The surfactant was Polysorbate 20, and 0.6 mL of the Polysorbate 20 was added to 19.4 mL of the surgical lubricant.
However, more surfactant may be added to increase drug concentration, e.g., up to about 500 μM.

For `Cc1ccc(-c2cc(C(F)(F)F)nn2-c2ccc(S(N)(=O)=O)cc2)cc1` [Celecoxib], the “relaxation of smooth muscle cells within a cell population” value ([1]; 12.5 μM) was 20%, the “relaxation of smooth muscle cells within a cell population” value ([1]; 25 μM) was 30% and the “toxicity to the tested cells (false hit)” value [2] was “toxicity killed the tested cells”.
With `CCOc1ccccc1OCCN[C@H](C)Cc1ccc(OC)c(S(N)(=O)=O)c1` [Tamsulosin] the cell population relaxation ([1]; 6.25 μM or greater) was roughly 20% and the “relaxation of smooth muscle (in words)” value [1] was “demonstrated efficacy at certain doses”.
Work on `CCCc1nc(C)c2c(=O)[nH]c(-c3cc(S(=O)(=O)N4CCN(CC)CC4)ccc3OCC)nn12` [Vardenafil] yielded a cell population relaxation ([1]; 1.56 μM or greater) of roughly 20%.
In the case of `C[C@@H](N)[C@H]1CC[C@H](C(=O)Nc2ccncc2)CC1` [Y-27632], the “reduction in contractile frequency” value (whole porcine ureters; 10 μM intraluminally) is reported as 3 ×, the “contractile activity of ureter (in words)” value (whole porcine ureters; 10 μM intraluminally, with 10 mM phenylephrine, listed as Y27632 (ROCK)) is reported as “rapid relaxation of the ureter” and the “frequency of peristaltic activity (in words)” value (whole porcine ureters; 10 μM with 10 mM phenylephrine, region iii) is reported as “significant decrease in frequency”. For the same compound, the “reduction in the slope of linear regression of cumulative contractions” value (whole porcine ureters; 10 μM, region iii vs other regions of FIG. 8) was no less than 3 ×, the “effect after removal from the infusion (region iv)” value (whole porcine ureters; phenylephrine 10 mM and saline buffer continued) was “the effects were reversed” and the relaxation (hUSMCs [3]; 25 μM alone, 8 hour exposure) was “about 45%”. For the same compound, the “Percentages of Cells that Remained Contracted After Treatment” value (hUSMCs [3]; ROCK 1.56 μM) was 81%, the “Percentages of Cells that Remained Contracted After Treatment” value (hUSMCs [3]; ROCK 3.13 μM) was 71% and the “Percentages of Cells that Remained Contracted After Treatment” value (hUSMCs [3]; ROCK 6.25 μM) was 67%. For the same compound, the “Percentages of Cells that Remained Contracted After Treatment” value (hUSMCs [3]; ROCK 12.50 μM) was 59%, the “Percentages of Cells that Remained Contracted After Treatment” value (hUSMCs [3]; ROCK 25.00 μM) was 54% and the “Percentages of Cells that Remained Contracted After Treatment” value (hUSMCs [3]; ROCK 50.00 μM) was 50%. For the same compound, the “Percentages of Cells that Remained Contracted After Treatment” value (hUSMCs [3]; ROCK […]) was 86%, the “relaxation of smooth muscle cells within a cell population” value ([1]; 3.13 μM) was 20% and the “hUSMC population relaxed (greatest effect, FIG. 1)” value ([1]; after an 8 hour exposure) was “about 40%”. For the same compound, the “relaxation of smooth muscle (in words)” value ([1]; listed as ROCK Y-27632) was “significant relaxation of smooth muscle”, the “relaxation of smooth muscle (in words)” value ([1]; listed as Y-27632 (ROCK)) was “relatively significant cell relaxation” and the “Percentages of Cells that Retained Viability” value (hUSMCs [4]; 3.13 μM) was 110%. The “Percentages of Cells that Retained Viability” value (hUSMCs [4]; 25 μM) was 100%, the “Percentages of Cells that Retained Viability” value (hUSMCs [4]; 50 μM) was 95% and the “actual drug retention in the surgical lubricant/surfactant mixture” value [5] was “about 200 μM”.
